Experimental data taken from patent US8906952B2, “Indole derivative or pharmaceutically acceptable salt thereof, preparation method thereof, and pharmaceutical composition for preventing or treating metabolic diseases containing same as active ingredient” (Korea Research Institute of Bioscience and Biotechnology, priority 2011, dated 2014).
Like-named read-outs stand apart in the source and are kept apart here.

How the values were obtained:
human DGAT1 = target: T1, human DGAT1 (Homo sapiens, UniProt O75907); test: DGAT enzyme inhibition test, hDGAT1 enzyme from sf9 insect cells; format: biochemical; settings: enzyme from sf9 cells overexpressing hDGAT1; read-out: hDGAT-1 (sf9) IC50
T1 construct: made in house; host or cells: sf9 insect cells
T1 sequence (O75907 1-488): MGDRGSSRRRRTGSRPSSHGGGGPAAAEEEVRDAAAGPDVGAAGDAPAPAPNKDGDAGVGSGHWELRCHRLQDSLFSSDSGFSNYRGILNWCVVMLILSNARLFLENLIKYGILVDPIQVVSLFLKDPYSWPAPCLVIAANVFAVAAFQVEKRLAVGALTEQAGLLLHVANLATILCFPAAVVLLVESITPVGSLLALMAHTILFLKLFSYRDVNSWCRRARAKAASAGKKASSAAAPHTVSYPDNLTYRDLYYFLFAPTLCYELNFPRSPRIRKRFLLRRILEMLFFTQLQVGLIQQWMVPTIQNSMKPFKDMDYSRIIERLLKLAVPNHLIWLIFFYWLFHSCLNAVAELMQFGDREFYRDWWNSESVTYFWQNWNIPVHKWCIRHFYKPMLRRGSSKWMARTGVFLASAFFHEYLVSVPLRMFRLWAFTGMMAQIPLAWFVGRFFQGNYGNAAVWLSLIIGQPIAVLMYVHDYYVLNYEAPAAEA
Description: (§1) To investigate inhibitory effect of the compounds of Examples 1-33 against DGAT enzyme activity, DGAT enzyme inhibition and DGAT2 selectivity were investigated using zymogen including:
(§2) 1) hDGAT1 and hDGAT2 enzymes, derived from insect cell overexpressing human DGAT1 and DGAT2 (‘sf9’), respectively,
(§3) To be specific, for the purpose of measuring human-derived DGAT enzyme inhibitory activity, using the zymogen, including enzymes derived from insect cell overexpressing human DGAT1 and DGAT2 (‘sf9’), microsomal protein isolated from human duodenal adenocarcinoma (‘Hutu 80’), and microsomal protein isolated from rat, and according to Coleman et al., (Methods Enzymol., 98-103, 1992), and substrate including 1,2-diacylglycerol(Sigma, D0138) and [^14C]palmitoyl-CoA (Amersham, CFA583), the amount of radiation of [^14C]triacylglycerol produced after enzymatic reaction was measured.
(§4) To be more specific, to the reaction solution containing 175 mM Tris-HCl (pH 8.0), 20 μl bovine serum albumin (10 mg/ml), 100 mM magnesium chloride, 30 μM [^14C]palmitoyl CoA (0.02 μCi, Amersham) and 200 μM 1,2-dioleoylglycerol, reagent dissolved in dimethylsulfoxide (10.0 μl) was added. After introducing 100 to 200 μg isolated microsomal protein and allowing the same to react at 25° C. for 10 min, the reaction was stopped by adding 1.5 ml stop solution (2-propanol:heptane:water=80:20:2, v:v:v). To isolate the product of the reaction (i.e., [^14C]triacylglycerol), 1 ml heptane and 0.5 ml distilled water were added and then decocted. After taking 1 ml supernatant, 2 ml alkaline ethanol solution (ethanol:0.5 N sodium hydroxide:water=50:10:40, v:v:v) were added and then decocted. After taking 0.65 ml supernatant from the decoction, the amount of radiation was measured with liquid scintillation counter (LSC). The DGAT inhibitory activity was calculated with Mathematical Expression 1 below:
(§5) T denotes cpm of experimental group in which the enzymatic reaction solution was treated with the sample,
(§6) C denotes cpm of control group in which the enzymatic reaction solution was not treated with the sample, and
(§7) B denotes cpm of control group treated with the sample without zymogen.

human DGAT2 = target: T2, human DGAT2 (Homo sapiens, UniProt Q96PD7); test: DGAT enzyme inhibition test, hDGAT2 enzyme from sf9 insect cells (DGAT2 selectivity); format: biochemical
T2 construct: made in house; host or cells: sf9 insect cells
T2 sequence (Q96PD7 1-388): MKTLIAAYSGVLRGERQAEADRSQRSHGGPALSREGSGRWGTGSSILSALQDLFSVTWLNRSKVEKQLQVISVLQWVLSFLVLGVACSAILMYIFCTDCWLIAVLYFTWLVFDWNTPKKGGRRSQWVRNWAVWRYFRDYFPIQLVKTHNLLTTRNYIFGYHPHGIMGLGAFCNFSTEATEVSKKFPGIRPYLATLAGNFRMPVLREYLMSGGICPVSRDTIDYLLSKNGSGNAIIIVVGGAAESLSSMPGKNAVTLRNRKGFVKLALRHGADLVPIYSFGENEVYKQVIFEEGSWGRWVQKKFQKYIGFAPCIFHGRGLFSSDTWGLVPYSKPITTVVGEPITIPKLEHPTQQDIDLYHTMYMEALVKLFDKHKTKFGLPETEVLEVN
Description: as §1, §2, §3, §4, §5, §6, §7

HepG2 cells = test: DGAT inhibitory effect in HepG2 cells (triglyceride production from [14C]glycerol); format: cell-based; settings: Homo sapiens; for activity at 10 µM: HepG2, 6 h, DMSO control = 100, read-out: Triglyceride production rate (%)/HepG2 cells at 10 μM; for inhibition at 10 µM: HepG2, 10 μM, read-out: biosynthesis inhibition rate of triglyceride
Procedure: To investigate inhibition effect on intracellular DGAT enzyme activity of the compounds obtained in Examples 1-51, intracellular DGAT enzyme activity was measured using human-derived liver HepG2 cells.
HepG2 cells were purchased from ATCC, and cultured in 37° C., 5% CO2 incubator including minimum essential medium (2 mM L-glutamine, earle's BSS adjusted to contain 1.5 g/L sodium bicarbonate, 0.1 mM nonessential amino acids, and 1 mM sodium pyruvate) added with 10% fetal bovine serum (FBS) and 1% antibiotic (100 U/ml penicillin and 100 µg/ml streptomycin).
The intracellular DGAT enzyme activity was measured based on an amount of triglycerides produced in the cultured HepG2 cells, by adding 10 μM enzyme inhibitor compounds obtained in Examples 1-51, respectively, and then determining the effect of the enzyme inhibitors according to reduction rate of the triglyceride production.
Specifically, cells were seeded 1×10^6 cell/ml per well of the 24 well culture plate, and 24 hours after incubation, medium was exchanged with FBS-free DMEM medium, and sample of 0.2 mCi [^14C]glycerol (Amersham) was added as substrate, and the reaction was allowed to occur for 6 hr. The induced production of triglyceride was catalyzed by the DGAT enzyme, and DGAT enzyme activity was determined based on the amount of production of triglyceride which was measured based on the amount of radiation. The sample was dissolved in dimethylsulfoxide (DMSO) to be used, and the control group in the triglyceride production reaction was reacted with dimethylsulfoxide only (i.e., without sample), and the amount of the triglyceride production rate was set to 100.
After the reaction completed, the substrate [^14C]glycerol which was either not absorbed into cells or not used for the reaction, were removed with phosphate-buffer-saline (PBS), and 0.5 ml extraction solvent (hexane:isopropanol=3:2, v:v) was added to extract full fat containing triglycerides. With 0.5 ml extraction solvent, extract was obtained two times for 30 min each, and 1 ml of the extract was concentrated with nitrogen gas. After removing the extraction solvent, the total fat was dissolved in organic solvent (chloroform:methanol=2:1) and spotted with thin-layer chromatography (TLC:silica gel 60F254, thickness: 0.5 mm, Merck) on the developing solvent (hexane:diethyl ether:acetic acid=80:20:1, v: v: v). Triglycerides (Rf value: 0.4) were isolated on TLC, and after exposing the TLC plate to the film with photosensitivity to radiation energy (imaging plate' Fujifilm, BMS-MS 2040) for 3 hr, the amount of [^14C] radiation of triglyceride was measured by imaging analysis (FLA 7000). The remaining cells after the extraction were dissolved in 0.3 ml 0.1 N sodium hydroxide for use in the measurement of protein concentration of the cells used for the reaction.
The experimental errors among the respective experimental groups were compensated with the experimental value which was obtained by dividing the measured radiation of triglyceride by protein concentration, and the production rate of triglyceride according to the respective compounds of Examples 1-51 are tabulated below.

[1] = 10 μM, enzyme from sf9 cells overexpressing hDGAT2, read-out: hDGAT-2 (sf9) inhibition rate(%)at 10 μM
[2] = concentration of 10 μM, read-out: hDGAT2 inhibition

| SMILES | IC50 (human DGAT1) [µM] | inhibition at 10 µM (human DGAT2; [1]) [%] | inhibition at 10 µM (human DGAT2; [2]) [%] | activity at 10 µM (HepG2 cells) [%] | inhibition at 10 µM (HepG2 cells) [%] |
| --- | --- | --- | --- | --- | --- |
| Cc1ccc2c(c1)c(/C=C/C(=O)N(NC(=O)c1cccc(F)c1)C(C)C)cn2C(=O)OC(C)(C)C [Example 35, (E)-tert-butyl 3-(3-(2-(3-fluorobenzoyl)-1-isopropylhydrazinyl)-3-oxoprop-1-enyl)-5-methyl-1H-indole-1-carboxylate] | 3.2 | 2 | < 11 | 57.6 | – |
| CC(C)c1ccc2c(/C=C/C(=O)N(NC(=O)c3cccc(F)c3)C(C)C)cn(C(=O)OC(C)(C)C)c2c1 [Example 36, (E)-tert-butyl 3-(3-(2-(3-fluorobenzoyl)-1-isopropylhydrazinyl)-3-oxoprop-1-enyl)-6-isopropyl-1H-indole-1-carboxylate] | > 100 | 3.6 | – | 75 | 20 to 30 |
| Cc1ccc2c(/C=C/C(=O)N(NC(=O)c3cccc(F)c3)C(C)C)cn(C(=O)OC(C)(C)C)c2c1 [Example 37, (E)-tert-butyl 3-(3-(2-(3-fluorobenzoyl)-1-isopropylhydrazinyl)-3-oxoprop-1-enyl)-6-methyl-1H-indole-1-carboxylate] | > 100 | 2.9 | – | 79.2 | 20 to 30 |
| CC(C)CCn1cc(/C=C/C(=O)N(NC(=O)c2cccc(F)c2)C(C)C)c2ccccc21 [Example 39, (E)-3-fluoro-N′-(3-(1-isopentyl-1H-indol-3-yl)acryloyl)-N′-isopropylbenzohydrazide] | 1.8 | 42.3 | – | 50.8 | – |
| CCn1cc(/C=C/C(=O)N(NC(=O)c2cccc(F)c2)C(C)C)c2ccccc21 [Example 41, (E)-N′-(3-(1-ethyl-1H-indol-3-yl)acryloyl)-3-fluoro-N′-isopropylbenzohydrazide] | 8.1 | 20.3 | – | 79.4 | 20 to 30 |
| CC(C)=CCn1cc(/C=C/C(=O)N(NC(=O)c2cccc(C)c2)C(C)C)c2ccccc21 [Example 50, (E)-N′-isopropyl-3-methyl-N′-(3-(1-(3-methylbut-2-enyl)-1H-indol-3-yl)acryloyl)benzohydrazide] | 4.6 | 39 | – | – | – |
| CC(C)=CCn1cc(/C=C/C(=O)N(NC(=O)c2ccc(C)cc2)C(C)C)c2ccccc21 [Example 51, (E)-N′-isopropyl-4-methyl-N′-(3-(1-(3-methylbut-2-enyl)-1H-indol-3-yl)acryloyl)benzohydrazide] | 9.9 | 37.1 | – | – | – |

Second part, led by results:

| IC50 (human DGAT1) [µM] | inhibition at 10 µM (human DGAT2; [1]) [%] | inhibition at 10 µM (human DGAT2; [2]) [%] | SMILES | activity at 10 µM (HepG2 cells) [%] | inhibition at 10 µM (HepG2 cells) [%] |
| --- | --- | --- | --- | --- | --- |
| 7.2 | 18.5 | – | CC(C)=CCn1cc(/C=C/C(=O)N(NC(=O)c2cccc(F)c2)C(C)C)c2ccccc21 [Example 34] | 58 | – |
| > 100 | < 0 | – | CC(C)N(NC(=O)c1cccc(F)c1)C(=O)/C=C/c1cn(C(=O)OC(C)(C)C)c2cc(F)ccc12 [Example 38, (E)-tert-butyl 6-fluoro-3-(3-(2-(3-fluorobenzoyl)-1-isopropylhydrazinyl)-3-oxoprop-1-enyl)-1H-indole-1-carboxylate] | 85.7 | – |
| > 100 | 2.2 | – | CC(C)N(NC(=O)c1cccc(F)c1)C(=O)/C=C/c1cn(C)c2ccccc12 [Example 40, (E)-3-fluoro-N′-isopropyl-N′-(3-(1-methyl-1H-indol-3-yl)acryloyl)benzohydrazide] | 90 | – |
| 3.6 | 32.4 | – | CCCn1cc(/C=C/C(=O)N(NC(=O)c2cccc(F)c2)C(C)C)c2ccccc21 [Example 42, (E)-3-fluoro-N′-isopropyl-N′-(3-(1-propyl-1H-indol-3-yl)acryloyl)benzohydrazide] | 79.9 | 20 to 30 |
| 4 | 0.6 | < 11 | CC(C)N(NC(=O)c1ccncc1)C(=O)/C=C/c1cn(C(=O)OC(C)(C)C)c2ccccc12 [Example 43, (E)-tert-butyl 3-(3-(2-isonicotinoyl-1-isopropylhydrazinyl)-3-oxoprop-1-enyl)-1H-indole-1-carboxylate] | 81.3 | – |
| 2.2 | 28.7 | – | CC(C)N(NC(=O)c1cccc(Cl)c1)C(=O)/C=C/c1cn(C(=O)OC(C)(C)C)c2ccccc12 [Example 45, (E)-tert-butyl 3-(3-(2-(3-chlorobenzoyl)-1-isopropylhydrazinyl)-3-oxoprop-1-enyl)-1H-indole-1-carboxylate] | 97.9 | – |
